Assays:
[1] = target: T1, Human R protein (Human R) (Homo sapiens, UniProt P20061); assay: Radioisotope dilution (RID) radiobinding assay for vitamin B12, Human R binder; format: binding; conditions: 500 pg added to human serum in the dark, 15 min incubation, standard extraction
T1 construct: from tissue; host or cells: human saliva
T1 sequence (P20061 24-433): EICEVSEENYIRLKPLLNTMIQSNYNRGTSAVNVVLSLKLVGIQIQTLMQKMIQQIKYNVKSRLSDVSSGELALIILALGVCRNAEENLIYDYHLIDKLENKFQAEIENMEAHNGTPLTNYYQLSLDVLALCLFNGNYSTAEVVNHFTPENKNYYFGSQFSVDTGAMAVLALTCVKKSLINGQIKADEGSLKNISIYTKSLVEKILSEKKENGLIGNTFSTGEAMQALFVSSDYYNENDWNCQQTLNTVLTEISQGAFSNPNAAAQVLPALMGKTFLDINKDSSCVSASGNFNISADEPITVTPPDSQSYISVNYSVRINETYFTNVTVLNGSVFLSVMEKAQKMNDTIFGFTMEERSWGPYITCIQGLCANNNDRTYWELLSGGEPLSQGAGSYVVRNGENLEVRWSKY
Method: (§1) Each of the RID assays referred to herein utilized the components referred to above. That is, components A, B, C, etc. or the buffer, albumin, and salt, respectively, etc. were added in the order, from left to right, shown in Table 1.
(§2) After the addition of ^57 Co-B12 the components are mixed thoroughly to mix both the naturally occurring B12 and the radioisotope B12 to make them compete and equally available to react with the binder. After the addition of the binder, H, the components were again mixed thoroughly, and then incubated for 45 minutes at about 37° C. Charcoal was then added to the incubated mixture and the components again mixed thoroughly and incubated for another 5 minutes at room temperature. This was followed by centrifuging at 2000×g at 4° C. for 30 minutes. Then 1000 ul of the resulting supernatant liquid is pipetetted from the sample and a determination of the amount of ^57 Co-B12 present is made. The amount of ^57 Co-B12 is indicative of the amount of natural B12 in the tested sample, with lesser amounts of ^57 Co-B12 being indicative of greater amounts of natural vitamin B12 in the sample.
(§3) (1) The values in tubes 3 and 4, the "blank" tubes without binder are averaged and subtracted from all other tubes starting with tube 5.
(§4) (2) The background radiation is subtracted from tubes 1 and 2 and these values are averaged.
(§5) (3) Tubes 5 and 6 are averaged. This value should be at least 15% below the average value for tubes 1 and 2 to insure that all of the binder is saturated in the presence of (^57 Co) B12 alone.
(§6) (4) Values for each tube beginning with tube 7 are divided by the average of tubes 5 and 6 to give values for "% trace binding."
(§7) (5) Percent trace binding for tubes 7-14 are used to obtain a standard curve. We plot % trace binding on the ordinate of logit-log paper versus pg vitamin B12 on the log scale.
(§8) (6) The amount of vitamin B12 in unknown samples is determined by interpolation from the standard curve or data of % trace binding versus pg vitamin B12. […]

[2] = target: Human intrinsic factor (Human IF) (Homo sapiens, UniProt P27352); assay: Radioisotope dilution (RID) radiobinding assay for vitamin B12, Human IF binder; format: binding; conditions: 500 pg added to human serum in the dark, 15 min incubation, standard extraction
Method: as §1, §2, §3, §4, §5, §6, §7, §8

Chain of Human intrinsic factor (Human IF) (P27352 19-417): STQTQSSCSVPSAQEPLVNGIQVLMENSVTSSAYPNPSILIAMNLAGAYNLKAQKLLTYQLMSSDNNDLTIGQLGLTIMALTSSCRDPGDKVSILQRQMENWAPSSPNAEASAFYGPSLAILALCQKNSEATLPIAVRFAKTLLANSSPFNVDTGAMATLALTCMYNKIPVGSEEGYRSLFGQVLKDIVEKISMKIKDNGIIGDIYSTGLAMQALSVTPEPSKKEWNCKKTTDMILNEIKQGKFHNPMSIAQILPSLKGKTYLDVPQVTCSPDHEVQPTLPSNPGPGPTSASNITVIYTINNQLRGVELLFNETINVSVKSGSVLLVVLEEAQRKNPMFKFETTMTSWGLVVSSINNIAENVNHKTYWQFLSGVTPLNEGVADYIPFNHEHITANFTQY

Row | Compound | increase in the apparent amount of vitamin B12, RID with human R protein [1] | increase in the apparent amount of vitamin B12, RID with human IF protein [2]
1 | CH3 -B12 | about 500 pg | about 500 pg
2 | C/C1=C2/[N-]C([C@H](CC(N)=O)[C@@]2(C)CCC(=O)NC[C@@H](C)OP(=O)([O-])O[C@H]2[C@@H](O)[C@@H](n3cnc4cc(C)c(C)cc43)O[C@@H]2CO)[C@]2(C)N=C(/C(C)=C3N=C(/C=C4N=C1[C@@H](CCC(N)=O)C\4(C)C)[C@@H](CCC(N)=O)[C@]\3(C)CC(N)=O)[C@@H](CCC(N)=O)[C@]2(C)CC(N)=O.[CH2-][C@H]1O[C@@H](n2cnc3c(N)ncnc32)[C@@H](O)[C@@H]1O.[Co+3] [adenosyl-B12] | about 500 pg | about 500 pg
3 | C/C1=C2/[N-][C@H]([C@H](CC(N)=O)[C@@]2(C)CCC(=O)NC[C@@H](C)OP(=O)([O-])O[C@H]2[C@@H](O)[C@@H](n3cnc4cc(C)c(C)cc43)O[C@@H]2CO)[C@]2(C)N=C(/C(C)=C3N=C(/C=C4N=C1[C@@H](CCC(N)=O)C\4(C)C)[C@@H](CCC(N)=O)[C@]\3(C)CC(N)=O)[C@@H](CCC(N)=O)[C@]2(C)CC(N)=O.[Co+3].[OH-] [OH-B12] | about 500 pg | about 500 pg

Source: patent US4351822A, “Quantitative testing for vitamin B12” (University Patents, Inc., priority 1979, dated 1982)
